Measurements from patent US12419886B2, “Parenteral formulations and uses thereof” (Eustralis Pharmaceuticals Limited, priority 2018, dated 2025).

Legend:
[1] = Solubility of Compound (Ia) 2HCl in water (ethanol also assessed); format: physicochemical
Protocol: Ethanol was also assessed as part of this study.

[2] = Excipient compatibility, 14 days stability (HPLC assay and related substances); format: physicochemical; conditions: 25° C./60% RH and 40° C./75% RH
Protocol: The successful formulation characteristics of a solution are its solubility and stability. The solvent system chosen must also be able to solubilise the drug at the desired concentration and must provide an environment where the drug has sufficient chemical stability. This study is an initial comparison of 2 weeks stability with potential excipients, and the % degradation was assessed. The excipients assessed are those typically found in liquid and freeze dried formulations. Excipient compatibility was investigated by subjecting a series of mixes containing active and excipient to elevated temperature for a nominated period and monitoring any degradation.
The solutions that were soluble in Table 3 were also prepared using Kolliphor 400 mg/mL in water and with Tween 80 as a solubiliser. These solutions were placed on stability at 25° C./60% RH and 40° C./75% RH for 14 days. The formulations was assessed for assay and related substances after 14 days of storage. Refer to Table 4 and 5 for the results.

Cc1ccccc1-c1cc(N2CCN(C)CC2)ncc1C(=O)N(C)Cc1cc(C(F)(F)F)cc(C(F)(F)F)c1 [Compound (Ia) 2HCl]
pH of solution in water ([1]; 5 mg/mL): 2.39
Result (solubility in water) ([1]; 5 mg/mL (50 mg in 10 mL water)): Very soluble
pH of solution in water ([1]; 10 mg/mL): 2.14
Result (solubility in water) ([1]; 10 mg/mL (100 mg in 10 mL water)): Very soluble
pH of solution in water ([1]; 15 mg/mL): 2.02
Result (solubility in water) ([1]; 15 mg/mL (150 mg in 10 mL water)): Soluble
pH of solution in water ([1]; 20 mg/mL): 1.87
Result (solubility in water) ([1]; 20 mg/mL (200 mg in 10 mL water)): Soluble
pH of solution in water ([1]; 25 mg/mL): 1.81
Result (solubility in water) ([1]; 25 mg/mL (250 mg in 10 mL water)): Soluble
pH of solution in water ([1]; 30 mg/mL): 1.75
Result (solubility in water) ([1]; 30 mg/mL (300 mg in 10 mL water)): Soluble
pH of solution in water ([1]; 35 mg/mL): 1.72
Result (solubility in water) ([1]; 35 mg/mL (350 mg in 10 mL water)): Soluble
pH of solution in water ([1]; 40 mg/mL): 1.66
Result (solubility in water) ([1]; 40 mg/mL (400 mg in 10 mL water)): Soluble
pH of solution in water ([1]; 45 mg/mL): 1.54
Result (solubility in water) ([1]; 45 mg/mL (450 mg in 10 mL water)): Soluble
pH of solution in water ([1]; 50 mg/mL): 1.52
Result (solubility in water) ([1]; 50 mg/mL (500 mg in 10 mL water)): Soluble
Solubility ([1]; 50 mg/mL, sentence follows mention of ethanol): freely soluble
Stability in a range of formulations (conclusion) [2]: quite stable
